# Counter-ions that a name gives are not always drawn.
# Test: chemical compatibility of ranitidine hydrochloride and acetylsalicylic acid in contact
# Type: physicochemical
# Settings: the two actives in physical contact; degradation products form, reaction manifest in a matter of days
# Source text: British Patent No 2,105,193 discloses pharmaceutical compositions comprising a systemic non-steroidal anti-inflammatory drug and ranitidine or a physiologically acceptable salt thereof. […] These two active ingredients react chemically with each other to produce degradation products. The reaction becomes manifest in a matter of days and implies a serious stability problem for pharmaceutical compositions containing both active ingredients.
smiles,measurement,value
"CNC(=C[N+](=O)[O-])NCCSCc1ccc(CN(C)C)o1 [ranitidine hydrochloride, N-[2-[[[5-(dimethylamino)methyl]-2-furanyl]methyl]thio]ethyl-N′-methyl-2-nitro-1,1-ethanediamine]",chemical compatibility with acetylsalicylic acid,clear chemical incompatibility
